Results published in ChEMBL document CHEMBL1201862, “PubChem BioAssay data set” (2004).
Activity calls are given as the source filed them.

Legend:
[1] = biological target: T1, Small ubiquitin-related modifier 1 (Homo sapiens, UniProt P63165); assay: SUMO1 protein interaction blockers, potency – biochemical, fluorescence polarization, uHTS hits, dose response (AID 624382); assay type: functional; conditions: read-out: IC50_Mean
[2] = biological target: Peroxisome proliferator-activated receptor gamma/Nuclear receptor corepressor 2 (Homo sapiens, UniProt P37231+Q9Y618); assay: Counterscreen for NR2E3 inverse agonists: TR-FRET-based biochemical high throughput dose response assay to identify inverse agonists of the interaction between peroxisome proliferator-activated receptor gamma (PPARg) and nuclear receptor co-repressor 2 (NCOR2).; assay type: functional
Sequence of Peroxisome proliferator-activated receptor gamma/Nuclear receptor corepressor 2 (P37231 whole entry): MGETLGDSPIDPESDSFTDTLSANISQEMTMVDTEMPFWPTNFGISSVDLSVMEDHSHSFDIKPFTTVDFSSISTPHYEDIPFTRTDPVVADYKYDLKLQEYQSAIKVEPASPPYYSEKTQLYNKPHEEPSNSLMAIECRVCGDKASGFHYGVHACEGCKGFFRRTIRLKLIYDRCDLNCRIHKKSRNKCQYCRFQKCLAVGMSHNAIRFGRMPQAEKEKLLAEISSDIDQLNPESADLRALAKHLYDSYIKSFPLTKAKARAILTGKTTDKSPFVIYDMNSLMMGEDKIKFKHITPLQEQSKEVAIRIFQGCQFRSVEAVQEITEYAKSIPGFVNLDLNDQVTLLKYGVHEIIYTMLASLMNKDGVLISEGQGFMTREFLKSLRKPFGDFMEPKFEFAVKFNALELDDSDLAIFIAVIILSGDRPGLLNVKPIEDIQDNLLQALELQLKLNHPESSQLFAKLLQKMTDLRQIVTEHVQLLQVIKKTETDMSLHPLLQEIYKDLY
Sequence of Peroxisome proliferator-activated receptor gamma/Nuclear receptor corepressor 2 (Q9Y618 whole entry): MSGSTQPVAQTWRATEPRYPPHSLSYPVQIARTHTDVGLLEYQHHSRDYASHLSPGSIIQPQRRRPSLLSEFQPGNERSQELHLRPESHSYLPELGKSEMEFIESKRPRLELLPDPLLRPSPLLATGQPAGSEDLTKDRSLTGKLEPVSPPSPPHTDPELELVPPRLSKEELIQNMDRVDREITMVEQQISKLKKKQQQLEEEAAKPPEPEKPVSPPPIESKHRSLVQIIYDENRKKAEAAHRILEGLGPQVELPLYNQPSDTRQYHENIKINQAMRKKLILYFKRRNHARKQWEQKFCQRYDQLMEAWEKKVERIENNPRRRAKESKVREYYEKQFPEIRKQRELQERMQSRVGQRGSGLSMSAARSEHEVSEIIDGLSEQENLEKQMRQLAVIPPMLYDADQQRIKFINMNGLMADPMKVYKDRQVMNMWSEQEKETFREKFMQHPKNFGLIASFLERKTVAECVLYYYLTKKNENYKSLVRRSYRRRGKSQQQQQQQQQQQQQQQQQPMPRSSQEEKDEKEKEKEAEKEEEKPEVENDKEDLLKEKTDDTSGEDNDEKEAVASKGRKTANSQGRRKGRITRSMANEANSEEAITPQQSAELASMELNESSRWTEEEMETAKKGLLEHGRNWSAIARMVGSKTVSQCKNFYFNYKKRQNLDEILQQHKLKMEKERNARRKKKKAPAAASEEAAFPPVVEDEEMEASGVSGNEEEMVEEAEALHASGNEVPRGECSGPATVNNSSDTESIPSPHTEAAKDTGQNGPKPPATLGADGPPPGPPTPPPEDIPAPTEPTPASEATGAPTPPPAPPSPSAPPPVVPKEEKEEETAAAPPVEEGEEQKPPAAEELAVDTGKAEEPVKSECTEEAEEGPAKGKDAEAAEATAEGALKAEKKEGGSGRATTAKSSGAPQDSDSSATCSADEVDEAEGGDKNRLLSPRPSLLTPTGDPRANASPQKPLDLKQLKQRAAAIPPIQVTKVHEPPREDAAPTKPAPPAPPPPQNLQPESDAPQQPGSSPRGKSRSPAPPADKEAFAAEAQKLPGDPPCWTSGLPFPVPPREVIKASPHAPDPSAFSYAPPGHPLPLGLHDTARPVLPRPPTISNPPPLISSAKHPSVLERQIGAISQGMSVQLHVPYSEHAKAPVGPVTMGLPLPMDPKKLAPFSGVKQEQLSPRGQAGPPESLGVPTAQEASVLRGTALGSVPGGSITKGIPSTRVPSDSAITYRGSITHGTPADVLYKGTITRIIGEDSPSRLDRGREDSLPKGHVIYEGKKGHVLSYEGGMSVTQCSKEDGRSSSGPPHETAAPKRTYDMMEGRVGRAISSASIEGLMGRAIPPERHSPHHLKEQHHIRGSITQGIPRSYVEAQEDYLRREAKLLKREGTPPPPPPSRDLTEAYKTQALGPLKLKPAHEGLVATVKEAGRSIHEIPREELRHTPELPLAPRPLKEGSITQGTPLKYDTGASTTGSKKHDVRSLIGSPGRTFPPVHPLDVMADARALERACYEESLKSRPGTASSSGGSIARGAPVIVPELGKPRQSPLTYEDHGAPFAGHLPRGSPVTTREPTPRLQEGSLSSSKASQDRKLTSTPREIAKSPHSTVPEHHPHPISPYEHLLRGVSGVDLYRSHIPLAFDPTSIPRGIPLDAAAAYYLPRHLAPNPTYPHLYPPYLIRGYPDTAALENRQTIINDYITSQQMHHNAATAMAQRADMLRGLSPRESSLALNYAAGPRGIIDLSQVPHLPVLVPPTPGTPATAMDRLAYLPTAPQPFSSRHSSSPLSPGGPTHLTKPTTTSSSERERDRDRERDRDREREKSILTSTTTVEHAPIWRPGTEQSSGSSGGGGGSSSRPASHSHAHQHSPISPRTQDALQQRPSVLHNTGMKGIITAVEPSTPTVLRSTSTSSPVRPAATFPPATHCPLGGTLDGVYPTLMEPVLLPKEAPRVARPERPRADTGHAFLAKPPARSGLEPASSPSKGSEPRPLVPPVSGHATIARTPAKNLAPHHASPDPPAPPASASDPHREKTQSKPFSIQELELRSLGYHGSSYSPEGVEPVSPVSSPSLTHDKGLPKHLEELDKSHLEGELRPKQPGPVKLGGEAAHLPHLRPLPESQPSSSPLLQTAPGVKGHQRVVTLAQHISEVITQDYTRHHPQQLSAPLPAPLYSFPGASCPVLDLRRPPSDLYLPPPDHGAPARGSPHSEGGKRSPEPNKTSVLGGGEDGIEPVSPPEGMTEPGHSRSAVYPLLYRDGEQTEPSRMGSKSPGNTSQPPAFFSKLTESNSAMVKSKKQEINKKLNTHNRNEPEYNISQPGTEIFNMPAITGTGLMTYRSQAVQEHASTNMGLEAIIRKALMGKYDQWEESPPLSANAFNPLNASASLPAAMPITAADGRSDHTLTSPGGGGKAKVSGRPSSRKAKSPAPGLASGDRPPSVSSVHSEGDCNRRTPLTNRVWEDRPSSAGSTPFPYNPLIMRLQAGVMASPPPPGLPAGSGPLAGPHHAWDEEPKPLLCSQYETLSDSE

[3] = biological target: T1, Small ubiquitin-related modifier 1; assay: SUMO1 protein-protein binding blockers, potency – biochemical, FRET, dose response (AID 624383); assay type: functional; conditions: read-out: IC50_Mean
[4] = biological target: Photoreceptor-specific nuclear receptor (Homo sapiens, UniProt Q9Y5X4); assay: ligands suppressing NR2E3 nuclear receptor activity – biochemical, TR-FRET, dose response (AID 463256); assay type: functional
Sequence of Photoreceptor-specific nuclear receptor (Q9Y5X4 whole entry): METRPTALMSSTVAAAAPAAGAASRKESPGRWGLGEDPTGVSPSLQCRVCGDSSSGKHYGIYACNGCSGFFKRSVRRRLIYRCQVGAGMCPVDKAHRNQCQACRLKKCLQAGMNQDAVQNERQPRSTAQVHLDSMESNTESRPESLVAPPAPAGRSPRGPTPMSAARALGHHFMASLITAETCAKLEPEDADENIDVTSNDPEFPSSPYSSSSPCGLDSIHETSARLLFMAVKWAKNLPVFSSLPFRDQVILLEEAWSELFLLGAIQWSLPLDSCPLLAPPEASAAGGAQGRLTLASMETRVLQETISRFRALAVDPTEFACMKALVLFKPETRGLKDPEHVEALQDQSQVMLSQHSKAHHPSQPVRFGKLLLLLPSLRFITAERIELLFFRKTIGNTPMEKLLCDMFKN

[5] = biological target: Mitogen-activated protein kinase 10 (Homo sapiens, UniProt P53779); assay: Dose response biochemical screening assay for inhibitors of c-Jun N-Terminal Kinase 3 (JNK3). [Related pubchem assays: 746 ]
Sequence of Mitogen-activated protein kinase 10 (P53779 whole entry): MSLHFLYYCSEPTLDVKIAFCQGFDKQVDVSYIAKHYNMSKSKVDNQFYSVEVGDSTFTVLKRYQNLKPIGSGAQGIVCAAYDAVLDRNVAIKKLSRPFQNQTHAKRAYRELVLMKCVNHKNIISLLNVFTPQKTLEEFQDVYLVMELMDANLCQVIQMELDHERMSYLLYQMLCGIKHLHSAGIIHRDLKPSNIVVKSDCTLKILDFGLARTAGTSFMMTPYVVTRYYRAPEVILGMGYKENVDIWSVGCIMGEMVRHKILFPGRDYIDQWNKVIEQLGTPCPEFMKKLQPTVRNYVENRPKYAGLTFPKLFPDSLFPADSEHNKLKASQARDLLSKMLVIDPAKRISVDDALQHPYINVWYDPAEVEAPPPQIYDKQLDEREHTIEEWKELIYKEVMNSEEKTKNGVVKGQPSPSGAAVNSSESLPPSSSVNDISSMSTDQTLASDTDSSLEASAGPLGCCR

[6] = Trypanosoma cruzi growth suppression in host cells – NIH3T3 host cells, beta-gal luminescence, confirmation (AID 2044); assay type: functional, cell-based;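 note: intracellular parasites grown in NIH/3T3 mouse fibroblasts as host cells; luminescent beta-galactosidase reporter signal from transgenic T. cruzi replicating inside host cells; inhibitors lower the luminescence signal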
cells [7] = assay type: functional
[8] = THP-1 cell cytotoxicity, dose response, cytotoxicity control for non-replicating M. tuberculosis project (AID 489025); assay type: functional
[9] = biological target: T2, Heat shock factor protein 1 (Mus musculus, UniProt P38532); assay: decrease of HSF1-responsive luciferase luminescence – cell-based, NIH3T3, dose retest, confirmation (AID 2382); assay type: functional;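 note: NIH3T3 fibroblasts with HSF1-driven luciferase reporter stressed by proteasome inhibitor MG132; luminescence from HSF1-driven luciferase expression after 8 hours of MG132 stress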
T2 sequence (P38532 whole entry): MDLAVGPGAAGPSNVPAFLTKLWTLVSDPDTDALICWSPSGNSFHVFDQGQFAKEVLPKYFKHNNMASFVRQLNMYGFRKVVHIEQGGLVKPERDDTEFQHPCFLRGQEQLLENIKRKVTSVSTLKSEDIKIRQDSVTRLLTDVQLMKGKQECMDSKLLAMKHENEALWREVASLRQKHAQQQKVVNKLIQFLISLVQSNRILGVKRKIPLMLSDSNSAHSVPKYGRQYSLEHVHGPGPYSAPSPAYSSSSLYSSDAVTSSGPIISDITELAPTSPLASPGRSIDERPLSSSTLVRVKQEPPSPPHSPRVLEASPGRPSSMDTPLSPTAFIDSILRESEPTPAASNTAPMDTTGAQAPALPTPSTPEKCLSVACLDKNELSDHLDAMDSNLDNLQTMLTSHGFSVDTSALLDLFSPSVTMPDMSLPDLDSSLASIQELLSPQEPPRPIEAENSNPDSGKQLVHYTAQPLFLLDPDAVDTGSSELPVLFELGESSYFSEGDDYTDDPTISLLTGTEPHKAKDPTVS

[10] = NIH3T3 cell viability loss – ATP luminescence, mouse fibroblasts, counter-screen, dose response (AID 2010); assay type: functional, cell-based;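 note: cells exposed to compound for about 90 hours before reading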
[11] = biological target: Heat shock protein HSP 90-alpha (Homo sapiens, UniProt P07900); assay: Luminescence-based dose response biochemical high throughput screening assay for inhibitors of the Heat Shock Protein 90 (HSP90). [Related pubchem assays: 1831 (Summary AID.), 1846 (Confirmation screen.), 1789 (Primary screen.)]
[12] = microbe, parasite or virus in culture; assay type: functional; conditions: Mycobacterium tuberculosis
cells [13] = assay: cells
[14] = Luminescent dose response cell-based high throughput screening assay for inhibitors of the Janus kinase 2 mutant JAK2V617F. [Related pubchem assays: 1446 (Primary screen.), 1521 (Confirmation assay.), 1486 (Counter screen.)]; assay type: functional
[15] = HPDE-C7 pancreatic duct cell viability loss – fluorescence, HTS (AID 430); assay type: functional, cell-based; conditions: Homo sapiens
[16] = viability loss of HPDE-C7K cells – cell-based, fluorescence, HTS, primary screen (AID 431); assay type: functional; conditions: Homo sapiens
[17] = biological target: T3, Low molecular weight phosphotyrosine protein phosphatase (Homo sapiens, UniProt P24666); assay: inhibition of human LMPTP enzyme activity – biochemical, absorbance, pNPP substrate, LMPTP-A isoform, set 2, orthogonal assay, dose response (AID 743308); assay type: functional
T3 sequence (P24666 whole entry): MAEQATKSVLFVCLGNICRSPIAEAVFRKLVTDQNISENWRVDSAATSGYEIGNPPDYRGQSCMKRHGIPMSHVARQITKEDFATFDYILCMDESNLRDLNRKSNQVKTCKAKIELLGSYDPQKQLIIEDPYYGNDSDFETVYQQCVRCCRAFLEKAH

[18] = biological target: T3, Low molecular weight phosphotyrosine protein phosphatase; assay: inhibition of LMPTP-A enzymatic activity – biochemical, OMFP substrate, fluorescence intensity, set 2, dose response (AID 743307); assay type: functional
[19] = biological target: Induced myeloid leukemia cell differentiation protein Mcl-1 (Homo sapiens, UniProt Q07820); assay type: functional
Sequence of Induced myeloid leukemia cell differentiation protein Mcl-1 (Q07820 whole entry): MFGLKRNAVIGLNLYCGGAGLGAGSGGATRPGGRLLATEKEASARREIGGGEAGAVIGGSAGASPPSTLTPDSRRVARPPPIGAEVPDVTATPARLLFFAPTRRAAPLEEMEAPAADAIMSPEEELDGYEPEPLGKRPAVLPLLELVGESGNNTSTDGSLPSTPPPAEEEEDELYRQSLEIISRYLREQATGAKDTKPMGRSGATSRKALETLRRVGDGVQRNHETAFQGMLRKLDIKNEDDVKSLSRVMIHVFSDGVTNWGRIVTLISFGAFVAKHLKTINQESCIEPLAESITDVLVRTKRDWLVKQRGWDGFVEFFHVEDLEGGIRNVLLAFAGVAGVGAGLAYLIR

[20] = Luminescence Cell-Based Dose Retest to Confirm Inhibitors of Cancer Stem Cells. [Related pubchem assays (depositor defined):AID2717, AID2721]; assay type: functional; conditions: Homo sapiens
Vero [21] = assay: inhibition of WNV-induced cytopathic effect – cell-based, CPE readout (AID 1621); assay type: functional; conditions: Chlorocebus sabaeus
Vero [22] = assay: mammalian cell viability reduction – secondary assay, cytotoxicity control for West Nile virus antiviral project, dose response (AID 1650); assay type: functional; conditions: Chlorocebus sabaeus
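Throughout, for AC50: cells exposed to compound for roughly 70 hours or longer before luminescence read.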

T1 sequence (P63165 whole entry): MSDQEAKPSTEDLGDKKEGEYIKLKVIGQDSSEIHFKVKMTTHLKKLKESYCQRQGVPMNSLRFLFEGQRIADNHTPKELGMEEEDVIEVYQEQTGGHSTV

In the case of `COc1cccc(-c2csc3nnc(SCC(=O)c4ccc(NC(C)=O)cc4)n23)c1`, the IC50 [1] is reported as > 66.6 µM (inactive), the IC50 [2] is reported as 6.73 µM (active) and the IC50 [3] is reported as 10.6 µM (active). For the same compound, the IC50 [4] was 4.9 µM (active).

With `COc1ccc(CC(=O)Nc2nc(C)cs2)cc1OC` the IC50 [5] was 27.9 µM (not active).

With `COc1cccc(-c2cc3nc4c(c(NCC(C)(C)CN(C)C)n3n2)CCCC4)c1` the EC50 [6] was 0.487 µM (active), the IC50 (cells [7]) was 19.2 µM (active) and the CC50 [8] was 28.9 µM (active). For the same compound, the EC50 [9] was 0.775 µM (active), the EC50 [10] was > 60 µM (not active) and the IC50 [11] was 2.39 µM (active). The CC50 [12] was 34.2 µM (active).

For `CN(C)CCNc1c2c(c(C#N)c3nc4ccccc4n13)CCCC2`, the EC50 [6] was < 0.1 µM (active), the IC50 (cells [7]) was 20.9 µM (active) and the EC50 (cells [13]) was 0.11 µM (active). For the same compound, the EC50 [10] was > 60 µM (not active).

In the case of `c1ccc2c(c1)CSc1sccc1C2=C1CCNCC1`, the IC50 [14] is reported as 1.71 µM (active).

With `O=c1c2c3c(sc2n2cnnc2n1Cc1ccccc1)CN(Cc1ccccc1)CC3` the EC50 [15] was 12.9 µM (active) and the EC50 [16] was 11.6 µM (active).

In the case of `Cc1ccc2nc(-c3ccccc3)cc(NCCCN3CCCCC3)c2c1`, the IC50 [17] is reported as > 80 µM (inactive) and the IC50 [18] is reported as > 80 µM (inactive).

With `CN1CCN(CCCN2c3ccccc3Sc3ccc(Cl)cc32)CC1` [PROCHLORPERAZINE] the IC50 [19] was 3.77 µM (active), the AC50 [20] was 4.93 µM (active) and the IC50 (Vero [21]) was 19.1 µM (active). The CC50 (Vero [22]) was 29.4 µM (active).
